Among the data in ChEMBL document CHEMBL1145448, “Synthesis and evaluation of tripodal peptide analogues for cellular delivery of phosphopeptides” (J Med Chem, 2007) are Activity values, retold here.

Non-standard residues stand in square brackets, D forms with d. Residues, ends and D or L forms follow the SMILES beside them. *: point of attachment. X1 = O=C(O)c1cc(C(=O)*)ccc1-c1c2ccc(=O)cc-2oc2cc(O)ccc12; pY = N[C@@H](Cc1ccc(OP(=O)(O)O)cc1)C(=O)O; 12Ado = NCCCCCCCCCCCC(=O)O

Data set [1] in a line: Cellular uptake in BT20 cells in presence of 77 mM sodium azide. The settings on record: human, bt-20. In kind it is ADME, cell-based.
The nature of data set [2]: Cytotoxicity against BT20 cells by cell viability assay. In kind it is cell-based. The following applies: human, bt-20.

Take `N=C(N)NCCC[C@H](NC(=O)CCCCCCCCCCCNC(=O)[C@H](CCCNC(=N)N)NC(=O)CCCCCCCCCCCNC(=O)[C@H](CCCCN)NC(=O)CNC(=O)c1ccc(-c2c3ccc(=O)cc-3oc3cc(O)ccc23)c(C(=O)O)c1)C(=O)O` (X1-GK[12Ado]R[12Ado]R-OH): the Activity entry in data set [1] is on record as “Active”; in data set [2], greater than 96%.

`CC[C@H](C)[C@H](NC(=O)[C@H](CCC(=O)O)NC(=O)[C@H](CCC(=O)O)NC(=O)[C@H](Cc1ccc(OP(=O)(O)O)cc1)NC(=O)CNC(=O)c1ccc(-c2c3ccc(=O)cc-3oc3cc(O)ccc23)c(C(=O)O)c1)C(=O)O` (X1-G[pY]EEI-OH): in data set [2], the Activity is listed as greater than 96%.
